Data reported in patent US10265307B2, “Thiazolecarboxamides and pyridinecarboxamide compounds useful as Pim kinase inhibitors” (Incyte Corporation, priority 2013, dated 2019).

Experiments:
Format in all cases: biochemical
[1] = molecular target: Pim-1 (Homo sapiens (Human), UniProt P11309); test: Pim-1 kinase assay; conditions: 1 mM ATP; read-out: Pim1 IC50
Protocol: Supplementation of the STOP buffer with beads and stopping the reactions were done under reduced light. Prior to the stopping reactions STOP buffer with beads was pre-incubated for 1 h in the dark at room temperature. After stopping the reactions, plates were incubated for 1 h in the dark at room temperature before reading on a PHERAstar FS plate reader (BMG Labtech) under reduced light.

[2] = molecular target: Pim-2 (Homo sapiens (Human), UniProt Q9P1W9); test: Pim-2 kinase assay; conditions: 1 mM ATP; read-out: Pim2 IC50
Pim-2, sequence (Q9P1W9 whole entry): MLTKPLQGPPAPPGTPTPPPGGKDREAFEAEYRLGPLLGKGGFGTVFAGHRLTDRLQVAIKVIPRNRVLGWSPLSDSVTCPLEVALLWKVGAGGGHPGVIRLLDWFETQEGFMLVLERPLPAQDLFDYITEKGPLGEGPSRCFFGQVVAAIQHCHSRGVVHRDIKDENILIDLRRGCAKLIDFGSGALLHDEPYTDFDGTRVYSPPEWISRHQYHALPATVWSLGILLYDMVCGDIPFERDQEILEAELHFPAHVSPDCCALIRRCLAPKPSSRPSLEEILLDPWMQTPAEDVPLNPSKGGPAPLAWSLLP
Protocol: Pim-2 kinase assay-20 μL reactions were run in white 384 well polystyrene plates dotted with 0.8 μL compound/DMSO in the assay buffer (50 mM Tris, pH 7.5, 0.01% Tween-20, 5 mM MgCl2, 0.01% BSA, 5 mM DTT), containing 0.05 μM Fluorescein-labeled CREBtide peptide substrate (Invitrogen PV3508), 1 mM ATP, and 1 nM enzyme (Invitrogen PV3649) for 2 h at 25° C. Reactions were stopped by addition of 10 μL TR-FRET Dilution Buffer (Invitrogen PV3574) with 30 mM EDTA and 1.5 nM LanthaScreen Tb-CREB pSer133 antibody (Invitrogen PV3566). After 30 min. incubation at room temperature, plates were read on a PHERAstar FS plate reader (BMG Labtech).
Although the above in vitro assays are conducted at 1 mM ATP compounds can also be evaluated for potency and in vitro activity against PIM targets utilizing Km conditions, where the concentration of ATP is set to the Km value and the assay is more sensitive to PIM inhibition activity.

[3] = molecular target: Pim-3 (Homo sapiens (Human), UniProt Q86V86); test: Pim-3 kinase assay; conditions: 1 mM ATP; read-out: Pim3 IC50
Protocol: Pim-1 and Pim-3 kinase assays-20 μL reactions were run in white 384 well polystyrene plates dotted with 0.8 μL compound/DMSO in the assay buffer (50 mM Tris, pH 7.5, 0.01% Tween-20, 5 mM MgCl2, 0.01% BSA, 5 mM DTT), containing 0.05 μM Biotin-labeled BAD peptide substrate (AnaSpec 62269), 1 mM ATP, and […] (Pim-1, Invitrogen PV3503) or […] (Pim-3, Millipore 14-738) enzyme for 1 h at 25° C. Reactions were stopped by addition of 10 μL STOP Buffer (150 mM Tris, pH=7.5, 150 mM NaCl, 75 mM EDTA, 0.01% Tween-20, 0.3% BSA) supplemented with Phospho-Bad (Ser112) Antibody (Cell Signaling 9291) diluted 666-fold, and Streptavidin donor beads (PerkinElmer 6760002) along with Protein-A acceptor beads (PerkinElmer 6760137) at 15 μg/mL each. Supplementation of the STOP buffer with beads and stopping the reactions were done under reduced light. Prior to the stopping reactions STOP buffer with beads was pre-incubated for 1 h in the dark at room temperature. After stopping the reactions, plates were incubated for 1 h in the dark at room temperature before reading on a PHERAstar FS plate reader (BMG Labtech) under reduced light.

Pim-1, sequence (P11309 whole entry): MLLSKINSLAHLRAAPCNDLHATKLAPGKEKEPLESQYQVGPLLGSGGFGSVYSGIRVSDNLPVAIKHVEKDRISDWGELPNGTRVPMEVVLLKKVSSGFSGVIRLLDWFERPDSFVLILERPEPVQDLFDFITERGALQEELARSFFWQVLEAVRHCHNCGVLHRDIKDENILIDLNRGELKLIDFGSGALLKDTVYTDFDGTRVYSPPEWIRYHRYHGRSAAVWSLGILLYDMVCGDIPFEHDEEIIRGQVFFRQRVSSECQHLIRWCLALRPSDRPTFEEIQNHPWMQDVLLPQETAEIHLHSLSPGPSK

SMILES | IC50 [1] | IC50 [2] | IC50 [3]
N[C@H]1CCCN(c2c(NC(=O)c3csc(-c4c(F)cccc4F)n3)cnc3c2CCC3)C1 [Example 13, N-{4-[(3S)-3-Aminopiperidin-1-yl]-6,7-dihydro-5H-cyclopenta[b]pyridin-3-yl}-2-(2,6-difluorophenyl)-1,3-thiazole-4-carboxamide] | ≤ 100 nM | > 2000 nM | ≤ 100 nM
Nc1sc(-c2c(F)cccc2F)nc1C(=O)Nc1cnc2[nH]ccc2c1N1CCC[C@H](N)C1 [Example 7, 5-Amino-N-{4-[(3S)-3-aminopiperidin-1-yl]-1H-pyrrolo[2,3-b]pyridin-5-yl}-2-(2,6-difluorophenyl)-1,3-thiazole-4-carboxamide] | ≤ 100 nM | ≤ 100 nM | ≤ 100 nM
COc1ccc(F)c(-c2nc(C(=O)Nc3cnc4c(c3N3CCC[C@H](N)C3)CCC4O)c(N)s2)c1F (single isomer, unassigned) [53 (Diastereoisomer 1)] | ≤ 100 nM | ≤ 100 nM | ≤ 100 nM
C[C@H]1CN(c2c(NC(=O)c3nc(-c4c(F)cccc4F)c(F)cc3N)cnc3c2CCC3O)C[C@@H](N)[C@@H]1O (single isomer, unassigned) [48 (Diastereoisomer 1)] | ≤ 100 nM | 100 to 1000 nM | ≤ 100 nM
C[C@H]1CN(c2c(NC(=O)c3ccc(F)c(-c4c(F)cccc4F)n3)cnc3c2CCC3O)C[C@@H](N)C1(C)O (single isomer, unassigned) [63 (Diastereoisomer 3)] | ≤ 100 nM | ≤ 100 nM | ≤ 100 nM
Nc1sc(-c2c(F)cccc2F)nc1C(=O)Nc1cnc2c(c1N1CCC[C@H](N)C1)CCC2O (single isomer, unassigned) [15 (Diastereoisomer 1)] | ≤ 100 nM | ≤ 100 nM | ≤ 100 nM
N[C@@H]1CN(c2c(NC(=O)c3ccc(F)c(-c4c(F)cccc4F)n3)cnc3c2CCC3O)C[C@H](C2CC2)[C@H]1O (single isomer, unassigned) [68 (Diastereoisomer 1)] | ≤ 100 nM | ≤ 100 nM | ≤ 100 nM
N[C@H]1CCCN(c2c(NC(=O)c3ccc(F)c(-c4c(F)cccc4F)n3)cnc3c2CCO3)C1 [Example 11, N-{4-[(3S)-3-Aminopiperidin-1-yl]-2,3-dihydrofuro[2,3-b]pyridin-5-yl}-6-(2,6-difluorophenyl)-5-fluoropyridine-2-carboxamide] | ≤ 100 nM | 100 to 1000 nM | ≤ 100 nM
C[C@H]1CN(c2c(NC(=O)c3ccc(F)c(-c4c(F)cccc4F)n3)cnc3c2CCC3O)C[C@@H](N)[C@@H]1O (single isomer, unassigned) [37 (Diastereoisomer 2)] | ≤ 100 nM | ≤ 100 nM | ≤ 100 nM
Nc1sc(-c2c(F)cccc2F)nc1C(=O)Nc1cnc2sccc2c1N1CCC[C@H](N)C1 [Example 3, 5-Amino-N-{4-[(3S)-3-aminopiperidin-1-yl]thieno[2,3-b]pyridin-5-yl}-2-(2,6-difluorophenyl)-1,3-thiazole-4-carboxamide] | ≤ 100 nM | ≤ 100 nM | ≤ 100 nM
C[C@@H]1C[C@H](N)CN(c2c(NC(=O)c3ccc(F)c(-c4c(F)cccc4F)n3)cnc3c2CCO3)C1 [Example 39, N-{4-[(3S,5R)-3-Amino-5-methylpiperidin-1-yl]-2,3-dihydrofuro[2,3-b]pyridin-5-yl}-6-(2,6-difluorophenyl)-5-fluoropyridine-2-carboxamide] | ≤ 100 nM | ≤ 100 nM | ≤ 100 nM
Nc1cc(F)c(-c2c(F)cccc2F)nc1C(=O)Nc1cnc2c(c1N1CCC[C@H](N)C1)CCCN2 [Example 32, 3-Amino-N-{4-[(3S)-3-aminopiperidin-1-yl]-5,6,7,8-tetrahydro-1,8-naphthyridin-3-yl}-6-(2,6-difluorophenyl)-5-fluoropyridine-2-carboxamide] | ≤ 100 nM | ≤ 100 nM | ≤ 100 nM
COc1ccc(F)c(-c2nc(C(=O)Nc3cnc4c(c3N3C[C@@H](N)[C@H](O)[C@@H](C)C3)CCO4)ccc2F)c1F [Example 74, N-{4-[(3R,4R,5S)-3-Amino-4-hydroxy-5-methylpiperidin-1-yl]-2,3-dihydrofuro[2,3-b]pyridin-5-yl}-6-(2,6-difluoro-3-methoxyphenyl)-5-fluoropyridine-2-carboxamide] | ≤ 100 nM | ≤ 100 nM | ≤ 100 nM
COc1ccc(F)c(-c2nc(C(=O)Nc3cnc4c(c3N3C[C@H](C)C[C@H](N)C3)CCC4O)c(N)s2)c1F (single isomer, unassigned) [54 (Diastereoisomer 1)] | ≤ 100 nM | ≤ 100 nM | ≤ 100 nM
COc1ccc(F)c(-c2nc(C(=O)Nc3cnc4c(c3N3C[C@H](C)C[C@H](N)C3)CCO4)ccc2F)c1F [Example 73, N-{4-[(3S,5R)-3-Amino-5-methylpiperidin-1-yl]-2,3-dihydrofuro[2,3-b]pyridin-5-yl}-6-(2,6-difluoro-3-methoxyphenyl)-5-fluoropyridine-2-carboxamide] | ≤ 100 nM | ≤ 100 nM | ≤ 100 nM
CS(=O)(=O)c1cc(F)c(-c2nc(C(=O)Nc3cnc4c(c3N3CCC[C@H](N)C3)CCC4O)ccc2F)c(F)c1 (single isomer, unassigned) [61 (Diastereoisomer 1)] | ≤ 100 nM | > 2000 nM | > 40 nM
Nc1sc(-c2c(F)cccc2F)nc1C(=O)Nc1cnc2c(c1N1CCC[C@H](N)C1)CCCN2 [Example 31, 5-Amino-N-{4-[(3S)-3-aminopiperidin-1-yl]-5,6,7,8-tetrahydro-1,8-naphthyridin-3-yl}-2-(2,6-difluorophenyl)-1,3-thiazole-4-carboxamide] | ≤ 100 nM | ≤ 100 nM | ≤ 100 nM
Nc1sc(-c2c(F)cccc2F)nc1C(=O)Nc1cnc2c(c1N1C[C@@H](N)C[C@@H](C(F)(F)F)C1)CCC2O (single isomer, unassigned) [44 (Diastereoisomer 1)] | ≤ 100 nM | ≤ 100 nM | ≤ 100 nM
C[C@@H]1C[C@H](N)CN(c2c(NC(=O)c3nc(-c4c(F)cccc4F)c(F)cc3N)cnc3c2CCO3)C1 [Example 38, 3-Amino-N-{4-[(3S,5R)-3-amino-5-methylpiperidin-1-yl]-2,3-dihydrofuro[2,3-b]pyridin-5-yl}-6-(2,6-difluorophenyl)-5-fluoropyridine-2-carboxamide] | ≤ 100 nM | ≤ 100 nM | ≤ 100 nM
Nc1cc(F)c(-c2c(F)cccc2F)nc1C(=O)Nc1cnc2c(c1N1CCC[C@H](N)C1)CCC2O (single isomer, unassigned) [23 (Diastereoisomer 2)] | ≤ 100 nM | ≤ 100 nM | ≤ 100 nM
Nc1cc(F)c(-c2c(F)cccc2F)nc1C(=O)Nc1cnc2c(c1N1CCC[C@H](N)C1)CCC2O (single isomer, unassigned) [23 (Diastereoisomer 1)] | ≤ 100 nM | ≤ 100 nM | ≤ 100 nM
C[C@@H]1C[C@H](N)CN(c2c(NC(=O)c3nc(-c4c(F)cccc4F)sc3N)cnc3c2CCC3O)C1 (single isomer, unassigned) [47 (Diastereoisomer 1)] | ≤ 100 nM | ≤ 100 nM | ≤ 100 nM
Nc1sc(-c2c(F)cccc2F)nc1C(=O)Nc1cnc2[nH]ncc2c1N1CCC[C@H](N)C1 [Example 34, 5-Amino-N-{4-[(3S)-3-aminopiperidin-1-yl]-1H-pyrazolo[3,4-b]pyridin-5-yl}-2-(2,6-difluorophenyl)-1,3-thiazole-4-carboxamide] | ≤ 100 nM | > 2000 nM | ≤ 100 nM
C[C@H]1CN(c2c(NC(=O)c3nc(-c4c(F)cccc4F)sc3N)cnc3c2CCO3)C[C@@H](N)[C@@]1(C)O [Example 75, 5-Amino-N-{4-[(3R,4S,5S)-3-amino-4-hydroxy-4,5-dimethylpiperidin-1-yl]-2,3-dihydrofuro[2,3-b]pyridin-5-yl}-2-(2,6-difluorophenyl)-1,3-thiazole-4-carboxamide] | ≤ 100 nM | ≤ 100 nM | ≤ 100 nM
C[C@@H]1C[C@H](N)CN(c2c(NC(=O)c3nc(-c4c(F)cccc4F)c(F)cc3N)cnc3c2CCC3O)C1 (single isomer, unassigned) [46 (Diastereoisomer 1)] | ≤ 100 nM | ≤ 100 nM | ≤ 100 nM
